Laboratory results reported in PubChem BioAssay AID1208 (EPA DSSTox, 2008).
Active and inactive are the calls of the source.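 How the source made its calls: active means at least one rat sex group has a carcinogenic potency value and tumor site recorded; inconclusive means only rat studies were judged inadequate by the national testing program; inactive means no potency or tumor site, with negative rat experiments.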

Test system: rat chronic carcinogenicity bioassay, TD50
Assay: DSSTox (CPDBAS) Carcinogenic Potency Database Summary Rat Bioassay Results
Conditions: for outcome: TD50_Rat_Note: no positive results; for Potency: stronger effect = lower value
Summary of the method: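 The activity score maps log10(1/TD50_Rat_mmol) linearly onto 1–100; actives without a computed TD50, such as mixtures, receive 50. Source data are chronic rat carcinogenicity tests, using the most positive experiment for each sex.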

[1] = TargetSites_Rat_Female: no positive results

`Cc1cc(Cc2cc(C)cc(C(C)(C)C)c2O)c(O)c(C(C)(C)C)c1` was tested, and the outcome [1] was “inactive; no positive results”.
`ClC=C(Cl)Cl` was tested, and the Potency (TD50_Rat_Note: TD50 is harmonic mean of more than one positive test, TargetSites_Rat_Female: no positive results) was 668 mg/kg/day and the outcome [1] was “inactive; no positive results”.
For `CN1C(=O)OC(C)(C)C1=O`, the outcome was “inactive; no positive results”.
With `CCCCNC(N)=O` the outcome [1] was “inactive; no positive results”.
`O=C1CCN([C@@H]2O[C@H](CO)[C@@H](O)[C@H]2O)C(=O)N1` was tested, and the outcome was “inactive; no positive results”.
In the case of `C=CC(=O)NCO`, the outcome [1] is reported as “inactive; no positive results”.
For `CCC[CH2][Sn]([CH2]CCC)([CH2]CCC)[O][Sn]([CH2]CCC)([CH2]CCC)[CH2]CCC`, the outcome [1] was “inactive; no positive results”.
In the case of `COc1ccc(OC)c(/C=C/c2ccc(N)cc2)c1`, the Potency is reported as 0.721 mg/kg/day.
With `c1ccc(Nc2ccc(Nc3ccccc3)cc2)cc1` the outcome [1] was “inactive; no positive results”.
In the case of `CCOP(=S)(OCC)SC1OCCOC1SP(=S)(OCC)OCC` (stereo not drawn), the outcome [1] is reported as “inactive; no positive results”.
In the case of `CC1=C(/C=C/C(C)=C/C=C/C(C)=C/C(=O)O)C(C)(C)CCC1`, the outcome [1] is reported as “inactive; no positive results”.
In the case of `O=CNNc1nc(-c2ccco2)cs1`, the outcome [1] is reported as “inactive”.
`Cc1cccc(Nc2cc(Cl)nc(SCC(=O)NCCO)n2)c1C` gave a Potency of 6.49 mg/kg/day.
`CCCN(CCC)N=O` was tested, and the Potency (TargetSites_Rat_Female: esophagus, liver, nasal cavity) was 0.186 mg/kg/day.
In the case of `CC(N)=O`, the Potency (TD50_Rat_Note: TD50 is harmonic mean of more than one positive test, TargetSites_Rat_Female: liver) is reported as 180 mg/kg/day.
For `CCCCN(N=O)C(N)=O`, the Potency (TD50_Rat_Note: TD50 is harmonic mean of more than one positive test, greater than ten-fold variation among TD50 values for positive res, TargetSites_Rat_Female: esophagus, ear Zymbals gland, hematopoietic system, large intestine, lung, mammary gland, stomach, uterus, vagina) was 0.517 mg/kg/day.
Work on `CCOC(=O)N(CC)N=O` yielded a Potency (TD50_Rat_Note: TD50 is harmonic mean of more than one positive test, TargetSites_Rat_Female: esophagus, oral cavity, small intestine, stomach) of 0.0904 mg/kg/day.
For `CC(C)CN(N=O)C(=N)N[N+](=O)[O-]`, the outcome was “inactive; no positive results”.
For `CN(N=O)C(=O)NCCC[C@H](N)C(=O)O`, the Potency (TD50_Rat_Note: positive test results only by intraperitoneal or intravenous injection, TD50 is harmonic mean of more than one positive, TargetSites_Rat_Female: kidney, mammary gland, pancreas, skin) was 0.787 mg/kg/day.
Work on `ClCCCl` yielded a Potency (TD50_Rat_Note: TD50 is harmonic mean of more than one positive test, greater than ten-fold variation among TD50 values for positive res, TargetSites_Rat_Female: mammary gland, subcutaneous tissue) of 14.6 mg/kg/day.
`C/C=C1/C[C@@H](C)[C@](O)(CO)C(=O)OCC2=CCN3CC[C@@H](OC1=O)[C@@H]23` showed a Potency of 0.862 mg/kg/day.
In the case of `CC(Cl)CCl` (stereo not drawn), the outcome [1] is reported as “inactive; no positive results”.
